The values that follow come from article PMC10051310, “Antiproliferative Activity, Multikinase Inhibition, Apoptosis- Inducing Effects and Molecular Docking of Novel Isatin–Purine Hybrids” (Medicina, 2023).

The melting point is the temperature, or range, at which the solid turns liquid. By IC50 is commonly meant the point on the concentration scale where inhibition reaches its midpoint.

One series deals with HeLa. The series can be described thus: MTT cytotoxicity assay, HeLa. The settings on record: Homo sapiens, 24 h, read-out: In Vitro Cytotoxicity IC50 HeLa.
Another series has as its system HepG2. The series can be described thus: MTT cytotoxicity assay, HepG2. The settings on record: Homo sapiens, HepG2, 24 h, read-out: In Vitro Cytotoxicity IC50 HepG2.
The next series concerns MCF-7. The series can be described thus: MTT cytotoxicity assay, MCF-7. The settings on record: Homo sapiens, MCF7, 24 h, read-out: In Vitro Cytotoxicity IC50 MCF-7. (In general: Formazan colour is commonly taken as a measure of viable cells.)
For a further series, the system named is MDA-MB-231. The series can be described thus: MTT cytotoxicity assay, MDA-MB-231. The settings on record: Homo sapiens, MDA-MB-231, 24 h, read-out: In Vitro Cytotoxicity IC50 MDA-MB-231.
Series [1] deals with HepG2, MCF-7, MDA-MB-231 and HeLa cell lines. The series can be described thus: MTT cytotoxicity assay, summary over all four cell lines. The settings on record: Homo sapiens, read-out: IC50 against all tested cell lines.
Experimental: Sunitinib, a well-known multi-kinase inhibitor, was used as a reference compound.
After incubation for 48 h, the cells were treated with different concentrations of the synthesized hybrid compounds for 24 h. After the addition of 20 μL MTT (5 mg/mL), the plates were incubated for 4 h and then 100 μL Dimethyl sulfoxide (DMSO) was added to each well to dissolve the insoluble purple formazan formed. […] The relative cell viability percentage was calculated as (A570 of treated samples/A570 of untreated sample) × 100.

SMILES strings stand for the structures.

`O=C1Nc2ccccc2C1=NNC(=O)c1ccc(Nc2ncnc3[nH]cnc23)cc1` [Compound 4, 4-((9H-purin-6-yl)amino)-N’-(2-oxoindolin-3-ylidene)benzohydrazide] registered a melting point of over 300 °C. Besides, the IC50 in the series with HeLa worked out at 62.4 ± 3.4 µM. Further, the IC50 with HepG2 came to 54.6 ± 3.1 µM. The IC50 in the series on MCF-7 is 47.3 ± 3 µM. In the series on MDA-MB-231, the IC50 stood at 59.7 ± 2.9 µM.

Consider `O=C1Nc2ccc(Cl)cc2C1=NNC(=O)c1ccc(Nc2ncnc3[nH]cnc23)cc1` [Compound 5, 4-((9H-purin-6-yl)amino)-N’-(5-chloro-2-oxoindolin-3-ylidene)benzohydrazide], for which the melting point is over 300 °C. Moreover, the IC50 with HeLa was over 100 µM. In addition, in the series on HepG2, the IC50 was 88.1 ± 4 µM. Moreover, the IC50 in the series on MCF-7 was over 100 µM. In the series with MDA-MB-231, the IC50 was 82.1 ± 3.8 µM.

As for `O=C1Nc2ccc(F)cc2C1=NNC(=O)c1ccc(Nc2ncnc3[nH]cnc23)cc1` [Compound 6, 4-((9H-purin-6-yl)amino)-N’-(5-fluoro-2-oxoindolin-3-ylidene)benzohydrazide], the melting point is over 300 °C. For the same molecule, in the series on HeLa, the half-maximal inhibitory concentration (IC50) is 30.7 ± 2.3 µM. In the series with HepG2, the IC50 was found to be 42.4 ± 2.7 µM. Moreover, in the series on MCF-7, the IC50 amounted to 22.3 ± 1.8 µM. Also, the IC50 in the series with MDA-MB-231 was determined as 19.1 ± 1.4 µM. In addition, the IC50 in series [1] lay in the range of 18.1 to 53.5 µM.

The molecule `Cc1ccc2c(c1)C(=NNC(=O)c1ccc(Nc3ncnc4[nH]cnc34)cc1)C(=O)N2` [Compound 7, 4-((9H-purin-6-yl)amino)-N’-(5-methyl-2-oxoindolin-3-ylidene)benzohydrazide] registered a melting point of over 300 °C. Further, the IC50 in the series with HeLa is over 100 µM. Besides, in the series on HepG2, the IC50 was determined as 60.4 ± 3.2 µM. Also, the 50% inhibitory concentration (IC50) in the series on MCF-7 worked out at 76.4 ± 3.7 µM. Moreover, in the series on MDA-MB-231, the IC50 was found to be 91.6 ± 4.5 µM.

The molecule `COc1ccc2c(c1)C(=NNC(=O)c1ccc(Nc3ncnc4[nH]cnc34)cc1)C(=O)N2` [Compound 8, 4-((9H-purin-6-yl)amino)-N’-(5-methoxy-2-oxoindolin-3-ylidene)benzohydrazide] returned a melting point of over 300 °C. In addition, in the series with HeLa, the concentration for half-maximal inhibition (IC50) was 53.5 ± 3.2 µM. Also, the IC50 in the series with HepG2 came to 48.1 ± 2.9 µM. Further, in the series on MCF-7, the IC50 came out at 40.6 ± 2.7 µM. Further, the IC50 in the series on MDA-MB-231 was 29.8 ± 2 µM. Further, in series [1], the IC50 was in the range of 18.1 to 53.5 µM.

`O=C1Nc2ccc([N+](=O)[O-])cc2C1=NNC(=O)c1ccc(Nc2ncnc3[nH]cnc23)cc1` [Compound 9, 4-((9H-purin-6-yl)amino)-N’-(5-nitro-2-oxoindolin-3-ylidene)benzohydrazide] showed a melting point of over 300 °C. In addition, in the series on HeLa, the IC50 turned out to be 84.6 ± 4.1 µM. For the same molecule, the IC50 in the series with HepG2 was 75.6 ± 3.5 µM. In addition, the IC50 in the series with MCF-7 was 65 ± 3.4 µM. The IC50 with MDA-MB-231 worked out at 72.2 ± 3.4 µM.

For the molecule `O=C1Nc2ccccc2/C1=N\Nc1ncnc2[nH]cnc12` [Compound 11, (E)-3-(2-(9H-purin-6-yl)hydrazineylidene)indolin-2-one], the melting point was over 300 °C. Further, the IC50 in the series with HeLa is 17.6 ± 1.4 µM. For the same molecule, in the series with HepG2, the IC50 came out at 12.9 ± 1 µM. Further, the IC50 in the series with MCF-7 was found to be 15.6 ± 1.3 µM. Also, in the series with MDA-MB-231, the IC50 was determined as 24.8 ± 1.9 µM.

With `O=C1Nc2ccc(Cl)cc2/C1=N\Nc1ncnc2[nH]cnc12` [Compound 12, (E)-3-(2-(9H-purin-6-yl)hydrazineylidene)-5-chloroindolin-2-one], the melting point was 296 to 298 °C. Further, the IC50 with HeLa was determined as 46.7 ± 2.8 µM. Further, the IC50 in the series with HepG2 turned out to be 26.4 ± 1.8 µM. In addition, the IC50 in the series with MCF-7 amounted to 33 ± 2.3 µM. Also, in the series with MDA-MB-231, the IC50 was 41.3 ± 2.5 µM. For the same molecule, the IC50 in series [1] lay within 18.1 to 53.5 µM.

On to `O=C1Nc2ccc(F)cc2/C1=N\Nc1ncnc2[nH]cnc12` [Compound 13, (E)-3-(2-(9H-purin-6-yl)hydrazineylidene)-5-fluoroindolin-2-one], for which the melting point was over 300 °C. Also, in the series on HeLa, the IC50 was 51.2 ± 3 µM. Moreover, the IC50 in the series on HepG2 is 31.7 ± 2.1 µM. In addition, in the series on MCF-7, the half-inhibitory concentration (IC50) worked out at 38.8 ± 2.5 µM. The IC50 in the series with MDA-MB-231 came out at 45.2 ± 2.7 µM. Also, the IC50 in series [1] lay within 18.1 to 53.5 µM.

Molecule `Cc1ccc2c(c1)/C(=N\Nc1ncnc3[nH]cnc13)C(=O)N2` [Compound 14, (E)-3-(2-(9H-purin-6-yl)hydrazineylidene)-5-methylindolin-2-one] had a melting point of 294 to 296 °C. Besides, in the series on HeLa, the IC50 is 43.5 ± 2.7 µM. The IC50 in the series with HepG2 is 18.1 ± 1.3 µM. Also, in the series with MCF-7, the IC50 is 27.5 ± 2.1 µM. In the series on MDA-MB-231, the IC50 amounted to 32.5 ± 2.2 µM. The IC50 in series [1] fell in the range of 18.1 to 53.5 µM.

With `O=C1Nc2ccc([N+](=O)[O-])cc2/C1=N\Nc1ncnc2[nH]cnc12` [Compound 16, (E)-3-(2-(9H-purin-6-yl)hydrazineylidene)-5-nitroindolin-2-one], the melting point was over 300 °C. Moreover, in the series on HeLa, the IC50 is 69.5 ± 3.6 µM. Moreover, the half-maximal inhibitory concentration (IC50) with HepG2 turned out to be 39.7 ± 2.5 µM. The IC50 with MCF-7 came out at 58.3 ± 3.2 µM. Besides, the IC50 in the series on MDA-MB-231 worked out at 67.4 ± 3.2 µM.

`CCN(CC)CCNC(=O)c1c(C)[nH]c(/C=C2\C(=O)Nc3ccc(F)cc32)c1C` [Sunitinib, reference compound]: the IC50 in the series with HeLa amounted to 7.48 ± 0.6 µM; with HepG2 it was 6.82 ± 0.5 µM; with MCF-7, 5.19 ± 0.4 µM; with MDA-MB-231 it was 8.41 ± 0.7 µM.
